Measured values as given in patent US10208019B2, “GLP-1 receptor agonists and uses thereof” (Pfizer Inc., priority 2016, dated 2019).

Tests used:
human GLP-1R [1] = molecular target: human GLP-1R (Homo sapiens (Human), UniProt P43220, L260F); experiment: CHO GLP-1R Clone C6—Assay 2: HTRF cAMP cell-based functional agonist assay (low GLP-1R density); conditions: for EC50: CHO GLP-1R Clone C6, cAMP HTRF, geometric mean; for Emax: CHO GLP-1R Clone C6, relative to saturating concentration of full agonist GLP-1 (1 μM), arithmetic mean, read-out: Assay 2 Emax (%)
Method: GLP-1R-mediated agonist activity was determined with a cell-based functional assay utilizing an HTRF (Homogeneous Time-Resolved Fluorescence) cAMP detection kit (cAMP HI Range Assay Kit; Cis Bio cat #62AM6PEJ) that measures cAMP levels in the cell. The method is a competitive immunoassay between native cAMP produced by the cells and exogenous cAMP labeled with the dye d2. The tracer binding is visualized by a mAb anti-cAMP labeled with Cryptate. The specific signal (i.e. energy transfer) is inversely proportional to the concentration of cAMP in either a standard or an experimental sample.
The human GLP-1R coding sequence (NCBI Reference Sequence NP_002053.3, including naturally-occurring variant Leu260Phe) was subcloned into pcDNA5-FRT-TO and a clonal CHO cell line stably expressing a low receptor density was isolated using the Flp-In™ T-Rex™ System, as described by the manufacturer (ThermoFisher).
Cells were removed from cryopreservation, re-suspended in 40 mL of Dulbecco's Phosphate Buffered Saline (DPBS-Lonza Cat #17-512Q) and centrifuged at 800×g for 5 min at 22° C. The DPBS was aspirated, and the cell pellet was re-suspended in 10 mL of complete growth medium (DMEM:F12 1:1 Mixture with HEPES, L-Gln, 500 mL (DMEM/F12 Lonza Cat #12-719F), 10% heat inactivated fetal bovine serum (Gibco Cat #16140-071), 5 mL of 100× Pen-Strep (Gibco Cat #15140-122), 5 mL of 100× L-Glutamine (Gibco Cat #25030-081), 700 μg/mL Hygromycin (Invitrogen Cat #10687010) and 15 μg/mL Blasticidin (Gibco Cat #R21001). A 1 mL sample of the cell suspension in growth media was counted on a Becton Dickinson ViCell to determine cell viability and cell count per mL. The remaining cell suspension was then adjusted with growth media to deliver 1600 viable cells per well using a Matrix Combi Multidrop reagent dispenser, and the cells were dispensed into a white 384 well tissue culture treated assay plate (Corning 3570). The assay plate was then incubated for 48 h at 37° C. in a humidified environment (95% O2, 5% CO2)
Varying concentrations of each compound to be tested (in DMSO) were diluted in assay buffer [HBSS with Calcium/Magnesium (Lonza/BioWhittaker cat #10-527F)/0.1% BSA (Sigma Aldrich cat #A7409-1L)/20 mM HEPES (Lonza/BioWhittaker cat #17-737E)] containing 100 μM 3-isobutyl-1-methylxanthin (IBMX; Sigma cat #15879). The final DMSO concentration in the compound/assay buffer mixture is 1%.
After 48 h, the growth media was removed from the assay plate wells, and the cells were treated with 20 μL of the serially diluted compound in assay buffer for 30 min at 37° C. in a humidified environment (95% O2, 5% CO2). Following the 30 min incubation, 10 μL of labeled d2 cAMP and 10 μL of anti-cAMP antibody (both diluted 1:20 in cell lysis buffer; as described in the manufacturer's assay protocol) were added to each well of the assay plate. The plates were then incubated at room temperature and after 60 minutes, changes in the HTRF signal were read with an Envision 2104 multi-label plate reader using excitation of 330 nm and emissions of 615 and 665 nm. Raw data were converted to nM cAMP by interpolation from a cAMP standard curve (as described in the manufacturer's assay protocol) and the percent effect was determined relative to a saturating concentration of the full agonist GLP-1 (1 μM) included on each plate. EC50 determinations were made from agonist dose response curves analyzed with a curve fitting program using a 4-parameter logistic dose response equation.

human GLP-1R [2] = molecular target: human GLP-1R (Homo sapiens, UniProt P43220, G168S); experiment: CHO GLP-1R Clone H6—Assay 1: HTRF cAMP cell-based functional agonist assay (high GLP-1R density); conditions: for EC50: read-out: Assay 1 EC50, CHO GLP-1R Clone H6, cAMP HTRF, geometric mean; for Emax: read-out: Assay 1 Emax (%), CHO GLP-1R Clone H6, relative to saturating concentration of full agonist GLP-1 (1 μM), arithmetic mean
Sequence of human GLP-1R (Homo sapiens, UniProt P43220, G168S) (P43220 24-463 G168S limits assumed): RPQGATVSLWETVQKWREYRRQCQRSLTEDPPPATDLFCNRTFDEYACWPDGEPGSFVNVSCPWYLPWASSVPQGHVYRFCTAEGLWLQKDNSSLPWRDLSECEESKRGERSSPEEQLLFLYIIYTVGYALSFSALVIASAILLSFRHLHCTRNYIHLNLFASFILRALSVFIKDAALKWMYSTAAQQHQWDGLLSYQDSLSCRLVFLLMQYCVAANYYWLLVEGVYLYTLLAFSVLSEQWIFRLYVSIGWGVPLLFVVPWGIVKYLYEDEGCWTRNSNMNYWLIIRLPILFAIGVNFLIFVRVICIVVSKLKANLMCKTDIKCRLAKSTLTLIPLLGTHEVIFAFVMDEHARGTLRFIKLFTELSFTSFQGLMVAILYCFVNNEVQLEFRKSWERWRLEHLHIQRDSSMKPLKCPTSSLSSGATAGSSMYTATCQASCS
Method: GLP-1R-mediated agonist activity was determined with a cell-based functional assay utilizing an HTRF (Homogeneous Time-Resolved Fluorescence) cAMP detection kit (cAMP HI Range Assay Kit; CisBio cat #62AM6PEJ) that measures cAMP levels in the cell. The method is a competitive immunoassay between native cAMP produced by the cells and exogenous cAMP labeled with the dye d2. The tracer binding is visualized by a mAb anti-cAMP labeled with Cryptate. The specific signal (i.e. energy transfer) is inversely proportional to the concentration of cAMP in either standard or experimental sample.
The human GLP-1R coding sequence (NCBI Reference Sequence NP_002053.3, including naturally-occurring variant Gly168Ser) was subcloned into pcDNA3 (Invitrogen) and a cell line stably expressing the receptor was isolated (designated Clone H6).
Cells were removed from cryopreservation, re-suspended in 40 mL of Dulbecco's Phosphate Buffered Saline (DPBS-Lonza Cat #17-512Q) and centrifuged at 800×g for 5 min at 22° C. The cell pellet was then re-suspended in 10 mL of growth medium [DMEM/F12 1:1 Mixture with HEPES, L-Gln, 500 mL (DMEM/F12 Lonza Cat #12-719F), 10% heat inactivated fetal bovine serum (Gibco Cat #16140-071), 5 mL of 100× Pen-Strep (Gibco Cat #15140-122), 5 mL of 100× L-Glutamine (Gibco Cat #25030-081) and 500 μg/mL Geneticin (G418) (Invitrogen #10131035)]. A 1 mL sample of the cell suspension in growth media was counted on a Becton Dickinson ViCell to determine cell viability and cell count per mL. The remaining cell suspension was then adjusted with growth media to deliver 2000 viable cells per well using a Matrix Combi Multidrop reagent dispenser, and the cells were dispensed into a white 384 well tissue culture treated assay plate (Corning 3570). The assay plate was then incubated for 48 hours at 37° C. in a humidified environment in 5% carbon dioxide.
Varying concentrations of each compound to be tested (in DMSO) were diluted in assay buffer (HBSS with Calcium/Magnesium (Lonza/BioWhittaker cat #10-527F)/0.1% BSA (Sigma Aldrich cat #A7409-1L)/20 mM HEPES (Lonza/BioWhiftaker cat #17-737E) containing 100 μM 3-isobutyl-1-methylxanthin (IBMX; Sigma cat #15879). The final DMSO concentration is 1%.
After 48 hours, the growth media was removed from the assay plate wells, and the cells were treated with 20 μL of the serially diluted compound in assay buffer for 30 minutes at 37° C. in a humidified environment in 5% carbon dioxide. Following the 30 minute incubation, 10 μL of labeled d2 cAMP and 10 μL of anti-cAMP antibody (both diluted 1:20 in cell lysis buffer; as described in the manufacturer's assay protocol) were added to each well of the assay plate. The plates were then incubated at room temperature and after 60 minutes, changes in the HTRF signal were read with an Envision 2104 multi-label plate reader using excitation of 330 nm and emissions of 615 and 665 nm. Raw data were converted to nM cAMP by interpolation from a cAMP standard curve (as described in the manufacturer's assay protocol) and the percent effect was determined relative to a saturating concentration of the full agonist GLP-17-36 (1 μM) included on each plate. EC50 determinations were made from agonist dose-response curves analyzed with a curve fitting program using a 4-parameter logistic dose response equation.

Sequence of human GLP-1R (Homo sapiens (Human), UniProt P43220, L260F) (P43220 24-463 L260F): as the sequence (P43220 24-463 G168S limits assumed) above, with S145G, L237F counted along it

Structure (SMILES) | EC50 (human GLP-1R [1]) | Emax (human GLP-1R [1]) | EC50 (human GLP-1R [2]) | Emax (human GLP-1R [2])
O=C(O)c1ccc2nc(CN3CCC(c4cccc(OCc5ccc(F)cc5F)n4)CC3)n(C[C@@H]3CCO3)c2c1 [Example 10A-05, 2-[(4-{6-[(2,4-difluorobenzyl)oxy]pyridin-2-yl}piperidin-1-yl)methyl]-1-[(2S)-oxetan-2-ylmethyl]-1H-benzimidazole-6-carboxylic acid] | 38 nM | 83% | 2.4 nM | 71%
CCn1cnnc1Cn1c(CN2CCC(c3cccc(OCc4ccc(Cl)cc4F)n3)CC2)nc2ccc(C(=O)O)cc21 [Example 10A-07] | 68 nM | 81% | 2.8 nM | 82%
O=C(O)c1ccc2nc(CN3CCN(c4cccc(OCc5ccc(Cl)cc5F)n4)CC3)n(C[C@@H]3CCO3)c2c1 [Example 10A-08, 2-[(4-{6-[(4-chloro-2-fluorobenzyl)oxy]pyridin-2-yl}piperazin-1-yl)methyl]-1-[(2S)-oxetan-2-ylmethyl]-1H-benzimidazole-6-carboxylic acid] | 9.2 nM | 94% | 0.55 nM | 77%
C[C@H]1CN(c2cccc(OCc3ccc(C#N)cc3F)n2)CCN1Cc1nc2ccc(C(=O)O)nc2n1C[C@@H]1CCO1 [Example 10A-09, 2-{[(2S)-4-{6-[(4-cyano-2-fluorobenzyl)oxy]pyridin-2-yl}-2-methylpiperazin-1-yl]methyl}-3-[(2S)-oxetan-2-ylmethyl]-3H-imidazo[4,5-b]pyridine-5-carboxylic acid] | 10 nM | 120% | 0.99 nM | 95%
C[C@H]1CN(c2cccc(OCc3ccc(Cl)cc3F)n2)CCN1Cc1nc2ccc(C(=O)O)nc2n1C[C@@H]1CCO1 [Example 10A-10, 2-{[(2S)-4-{6-[(4-chloro-2-fluorobenzyl)oxy]pyridin-2-yl}-2-methylpiperazin-1-yl]methyl}-3-[(2S)-oxetan-2-ylmethyl]-3H-imidazo[4,5-b]pyridine-5-carboxylic acid] | 4.1 nM | 100% | 0.3 nM | 84%
O=C(O)c1ccc2nc(CN3CCC(c4cccc(OCc5ccc(Cl)cc5F)n4)CC3)n(CCN3CCCC3=O)c2c1 [Example 10A-12] | 4400 nM | 110% | 110 nM | 68%
C[C@H]1CN(c2cccc(OCc3ccc(Cl)cc3F)n2)CCN1Cc1nc2ccc(C(=O)O)cc2n1Cc1cocn1 [Example 10A-13] | 170 nM | 75% | 4.1 nM | 67%
C[C@H]1CN(c2cccc(OCc3ccc(C#N)cc3F)n2)CCN1Cc1nc2ccc(C(=O)O)cc2n1Cc1cocn1 [Example 10A-14] | 220 nM | 93% | 8.1 nM | 74%
C[C@H]1CN(c2cccc(OCc3ccc(C#N)cc3F)n2)CCN1Cc1nc2ccc(C(=O)O)cc2n1Cc1ncco1 [Example 10A-15, 2-{[(2S)-4-{6-[(4-cyano-2-fluorobenzyl)oxy]pyridin-2-yl}-2-methylpiperazin-1-yl]methyl}-1-(1,3-oxazol-2-ylmethyl)-1H-benzimidazole-6-carboxylic acid] | 27 nM | 87% | 1.3 nM | 72%
C[C@H]1CN(c2cccc(OCc3ccc(Cl)cc3F)n2)CCN1Cc1nc2ccc(C(=O)O)cc2n1Cc1cnco1 [Example 10A-16, 2-{[(2S)-4-{6-[(4-chloro-2-fluorobenzyl)oxy]pyridin-2-yl}-2-methylpiperazin-1-yl]methyl}-1-(1,3-oxazol-5-ylmethyl)-1H-benzimidazole-6-carboxylic acid] | 45 nM | 83% | 1.7 nM | 67%
C[C@H]1CN(c2cccc(OCc3ccc(C#N)cc3F)n2)CCN1Cc1nc2ccc(C(=O)O)cc2n1Cc1cnco1 [Example 10A-17] | 59 nM | 85% | 1.8 nM | 77%
C[C@H]1CN(c2cccc(OCc3ccc(Cl)cc3F)n2)CCN1Cc1nc2ccc(C(=O)O)cc2n1Cc1ncco1 [Example 10A-18, 2-{[(2S)-4-{6-[(4-chloro-2-fluorobenzyl)oxy]pyridin-2-yl}-2-methylpiperazin-1-yl]methyl}-1-(1,3-oxazol-2-ylmethyl)-1H-benzimidazole-6-carboxylic acid] | 33 nM | 78% | 1.6 nM | 78%
Cc1nnc(Cn2c(CN3CCC(c4cccc(OCc5ccc(Cl)cc5F)n4)CC3)nc3ccc(C(=O)O)cc32)n1C [Example 10A-20] | > 20000 nM | – | > 15000 nM | 98%
CCn1cnnc1Cn1c(CN2CCN(c3cccc(OCc4ccc(Cl)cc4F)n3)C[C@@H]2C)nc2ccc(C(=O)O)cc21 [Example 10A-21] | 400 nM | 100% | 18 nM | 88%
C[C@H]1CN(c2cccc(OCc3ccc(Cl)cc3F)n2)CCN1Cc1nc2ccc(C(=O)O)cc2n1Cc1cnnn1C [Example 10A-22] | 100 nM | 79% | 5.7 nM | 67%
C[C@H]1CN(c2cccc(OCc3ccc(C#N)cc3F)n2)CCN1Cc1nc2ccc(C(=O)O)cc2n1Cc1cnnn1C [Example 10A-23] | 760 nM | 91% | 38 nM | 76%
N#Cc1ccc(COc2cccc(C3CCN(Cc4nc5ccc(C(=O)O)nc5n4Cc4cnco4)CC3)n2)c(F)c1 [Example 10A-24] | 130 nM | 94% | 5.7 nM | 78%
C[C@H]1CN(c2cccc(OCc3ccc(C#N)cc3F)n2)CCN1Cc1nc2ccc(C(=O)O)cc2n1Cc1cncn1C [Example 10A-25] | 41 nM | 99% | 1.7 nM | 82%
COC1(Cn2c(CN3CCC(c4cccc(OCc5ccc(Cl)cc5F)n4)CC3)nc3ccc(C(=O)O)cc32)CCC1 [Example 10A-26, 2-[(4-{6-[(4-chloro-2-fluorobenzyl)oxy]pyridin-2-yl}piperidin-1-yl)methyl]-1-[(1-methoxycyclobutyl)methyl]-1H-benzimidazole-6-carboxylic acid] | 190 nM | 80% | 7 nM | 59%
CCn1cncc1Cn1c(CN2CCC(c3cccc(OCc4ccc(F)cc4F)n3)CC2)nc2ccc(C(=O)O)cc21 [Example 10A-32, 2-[(4-{6-[(2,4-difluorobenzyl)oxy]pyridin-2-yl}piperidin-1-yl)methyl]-1-[(1-ethyl-1H-imidazol-5-yl)methyl]-1H-benzimidazole-6-carboxylic acid] | 5 nM | 94% | 0.47 nM | 77%
O=C(O)c1ccc2nc(CN3CCN(c4cccc(OCc5ccc(Cl)cc5F)n4)CC3)n(Cc3ncco3)c2c1 [Example 10A-33, 2-[(4-{6-[(4-chloro-2-fluorobenzyl)oxy]pyridin-2-yl}piperazin-1-yl)methyl]-1-(1,3-oxazol-2-ylmethyl)-1H-benzimidazole-6-carboxylic acid] | 24 nM | 91% | 1.5 nM | 73%
N#Cc1ccc(COc2cccc(N3CCN(Cc4nc5ccc(C(=O)O)cc5n4Cc4ncco4)CC3)n2)c(F)c1 [Example 10A-34, 2-[(4-{6-[(4-cyano-2-fluorobenzyl)oxy]pyridin-2-yl}piperazin-1-yl)methyl]-1-(1,3-oxazol-2-ylmethyl)-1H-benzimidazole-6-carboxylic acid] | 29 nM | 95% | 1.5 nM | 80%
CCn1cncc1Cn1c(CN2CCN(c3cccc(OCc4ccc(C#N)cc4F)n3)CC2)nc2ccc(C(=O)O)cc21 [Example 10A-35, 2-[(4-{6-[(4-cyano-2-fluorobenzyl)oxy]pyridin-2-yl}piperazin-1-yl)methyl]-1-[(1-ethyl-1H-imidazol-5-yl)methyl]-1H-benzimidazole-6-carboxylic acid] | 3.8 nM | 93% | 0.3 nM | 93%
Cn1cncc1Cn1c(CN2CCN(c3cccc(OCc4ccc(Cl)cc4F)n3)CC2)nc2ccc(C(=O)O)cc21 [Example 10A-36, 2-[(4-{6-[(4-chloro-2-fluorobenzyl)oxy]pyridin-2-yl}piperazin-1-yl)methyl]-1-[(1-methyl-1H-imidazol-5-yl)methyl]-1H-benzimidazole-6-carboxylic acid] | 13 nM | 110% | 0.33 nM | 82%
Cn1cncc1Cn1c(CN2CCN(c3cccc(OCc4ccc(C#N)cc4F)n3)CC2)nc2ccc(C(=O)O)cc21 [Example 10A-37, 2-[(4-{6-[(4-cyano-2-fluorobenzyl)oxy]pyridin-2-yl}piperazin-1-yl)methyl]-1-[(1-methyl-1H-imidazol-5-yl)methyl]-1H-benzimidazole-6-carboxylic acid] | 23 nM | 110% | 3.4 nM | 86%
O=C(O)c1ccc2nc(CN3CCC(c4cccc(OCc5ccc(Cl)cc5F)n4)CC3)n(Cc3cocn3)c2c1 [Example 10A-41, 2-[(4-{6-[(4-chloro-2-fluorobenzyl)oxy]pyridin-2-yl}piperidin-1-yl)methyl]-1-(1,3-oxazol-4-ylmethyl)-1H-benzimidazole-6-carboxylic acid] | 140 nM | 82% | 12 nM | 75%
O=C(O)c1ccc2nc(CN3CCC(c4cccc(OCc5ccc(Cl)cc5F)n4)CC3)n(Cc3ncco3)c2c1 [Example 10A-42, 2-[(4-{6-[(4-chloro-2-fluorobenzyl)oxy]pyridin-2-yl}piperidin-1-yl)methyl]-1-(1,3-oxazol-2-ylmethyl)-1H-benzimidazole-6-carboxylic acid] | 29 nM | 74% | 2.7 nM | 73%
